In this test the test system is P388. Briefly: Cytotoxicity against mouse P388 cells by MTT assay. Type of test: functional, cell-based. (In general: Tetrazolium dyes change colour on reduction, which living cells bring about.)

Values after ≈ are worked out from the molar mass of the structure shown.

One may read the IC50 as the concentration that inhibits the measured activity by half. A higher IC50 goes with weaker potency in that assay.

Take `CON(CCCCCCCCCCC#CCCCCc1cccnc1)[C@@H]1O[C@H](CO)[C@@H](O)[C@H](O)[C@H]1O` [AMPHIMEDOSIDE A]: the midpoint of inhibition, the IC50, lay at 11 mg/L (≈ 21.7 µM).

On to `CON(CCCCCCCCC#CCCCCc1cccnc1)[C@@H]1O[C@H](CO)[C@@H](O)[C@H](O)[C@H]1O` [AMPHIMEDOSIDE B], for which the IC50 was 11 mg/L (≈ 23 µM).

For the compound `CON(CCCCCCCCCCC#CCCc1cccnc1)[C@@H]1O[C@H](CO)[C@@H](O)[C@H](O)[C@H]1O` [AMPHIMEDOSIDE C], the IC50 amounted to 5 mg/L (≈ 10.4 µM). Compound `CON(CC(C)CCCCCCCCCCc1cccnc1)[C@@H]1O[C@H](CO)[C@@H](O)[C@H](O)[C@H]1O` (stereo not given in full) [AMPHIMEDOSIDE D] registered a half-maximal inhibitory concentration (IC50) of 0.45 mg/L (≈ 0.96 µM). As for `CON(CCCC/C=C\CCCCCCCCc1cccnc1)[C@@H]1O[C@H](CO)[C@@H](O)[C@H](O)[C@H]1O` [AMPHIMEDOSIDE E], the figure is 2.2 mg/L (≈ 4.58 µM).
